Reference: ChEMBL document CHEMBL1201862, “PubChem BioAssay data set” (2004)
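Compound exposure: 48 hours, 5 concentrations, 96-well plates. GI50 = concentration required for 50% inhibition of growth.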 Calls of active or inactive are those of the source. Rule as the data show it: active = GI50 up to about 1.1 µM and inactive = higher.

Key:
Test in all cases: DTP human tumour cell line panel, 48 h
[1] = tested on: SK-MEL-2
[2] = tested on: SK-MEL-5
[3] = tested on: MCF7
[4] = tested on: SK-OV-3
[5] = tested on: NCI-H460
[6] = tested on: OVCAR-8
[7] = tested on: OVCAR-5
[8] = tested on: ACHN
[9] = tested on: SR
[10] = tested on: MDA-N
[11] = tested on: BT-549
[12] = tested on: HOP-92
[13] = tested on: SK-MEL-28
[14] = tested on: TK-10
[15] = tested on: HCT-116
[16] = tested on: LOX IMVI
[17] = tested on: MDA-MB-435
[18] = tested on: A498
[19] = tested on: T47D
[20] = tested on: CCRF-CEM

SMILES: C[C@@H]1CCC2[C@@H](C)[C@H](O[C@H]3O[C@@H]4O[C@@]5(C)CCC6[C@H](C)CCC([C@H]3C)[C@]64OO5)O[C@@H]3O[C@@]4(C)CCC1[C@@]23OO4 (stereo not given in full)
- GI50 [1]: 0.401 µM (active)
- GI50 [2]: 0.09 µM (active)
- GI50 [3]: 0.0925 µM (active)
- GI50 [4]: 0.452 µM (active)
- GI50 [5]: 0.0675 µM (active)
- GI50 [6]: 0.0929 µM (active)
- GI50 [7]: 0.352 µM (active)
- GI50 [8]: 0.0953 µM (active)
- GI50 [9]: 0.0318 µM (active)
- GI50 [10]: 0.136 µM (active)
- GI50 [11]: 0.0553 µM (active)
- GI50 [12]: 0.114 µM (active)
- GI50 [13]: 5.69 µM (inactive)
- GI50 [14]: 0.205 µM (active)
- GI50 [15]: 0.0177 µM (active)
- GI50 [16]: 0.0258 µM (active)
- GI50 [17]: 0.06 µM (active)
- GI50 [18]: 4.15 µM (inactive)
- GI50 [19]: 0.0293 µM (active)
- GI50 [20]: 0.0462 µM (active)

SMILES: COC(=O)C1(C(=O)OC)N=C(C)OC1c1ccccn1 (stereo not given)
- GI50 [1]: > 100 µM (inactive)
- GI50 [2]: > 100 µM (inactive)
- GI50 [3]: > 100 µM (inactive)
- GI50 [4]: > 100 µM (inactive)
- GI50 [5]: > 100 µM (inactive)
- GI50 [6]: > 100 µM (inactive)
- GI50 [7]: > 100 µM (inactive)
- GI50 [8]: > 100 µM (inactive)
- GI50 [9]: > 100 µM (inactive)
- GI50 [10]: > 100 µM (inactive)
- GI50 [11]: > 100 µM (inactive)
- GI50 [12]: > 100 µM (inactive)
- GI50 [13]: > 100 µM (inactive)
- GI50 [14]: > 100 µM (inactive)
- GI50 [15]: > 100 µM (inactive)
- GI50 [16]: > 100 µM (inactive)
- GI50 [17]: > 100 µM (inactive)
- GI50 [18]: > 100 µM (inactive)
- GI50 [19]: > 100 µM (inactive)
- GI50 [20]: > 100 µM (inactive)

SMILES: O/N=N/c1cnccn1
- GI50 [1]: > 1200 µM (inactive)
- GI50 [2]: > 1250 µM (inactive)
- GI50 [3]: 531 µM (inactive)
- GI50 [4]: > 269 µM (inactive)
- GI50 [5]: 724 µM (inactive)
- GI50 [6]: 1200 µM (inactive)
- GI50 [7]: > 1250 µM (inactive)
- GI50 [8]: 480 µM (inactive)
- GI50 [9]: > 180 µM (inactive)
- GI50 [10]: > 1250 µM (inactive)
- GI50 [11]: > 979 µM (inactive)
- GI50 [12]: > 1080 µM (inactive)
- GI50 [13]: > 1250 µM (inactive)
- GI50 [14]: > 1250 µM (inactive)
- GI50 [15]: > 1230 µM (inactive)
- GI50 [16]: 1190 µM (inactive)
- GI50 [17]: > 1250 µM (inactive)
- GI50 [18]: > 1250 µM (inactive)
- GI50 [19]: 933 µM (inactive)
- GI50 [20]: 491 µM (inactive)

SMILES: COc1cc(CNC(=O)CCCCCCCCCCSC#N)ccc1O
- GI50 [1]: 14.1 µM (inactive)
- GI50 [2]: 6.22 µM (inactive)
- GI50 [3]: 17.1 µM (inactive)
- GI50 [4]: 10.6 µM (inactive)
- GI50 [5]: 13.3 µM (inactive)
- GI50 [6]: 18.5 µM (inactive)
- GI50 [7]: 30.3 µM (inactive)
- GI50 [8]: > 10 µM (inactive)
- GI50 [9]: 8.47 µM (inactive)
- GI50 [10]: 5.87 µM (inactive)
- GI50 [11]: 22.9 µM (inactive)
- GI50 [12]: 17.1 µM (inactive)
- GI50 [13]: 7.66 µM (inactive)
- GI50 [14]: 20.5 µM (inactive)
- GI50 [15]: 14.9 µM (inactive)
- GI50 [16]: 12 µM (inactive)
- GI50 [17]: 5.52 µM (inactive)
- GI50 [18]: 15.1 µM (inactive)
- GI50 [19]: 8.26 µM (inactive)
- GI50 [20]: 8.13 µM (inactive)

SMILES: O=C(O)c1c2c(cc3c1CC(Cc1ccccc1)C3=O)CCC2 (stereo not given)
- GI50 [1]: > 100 µM (inactive)
- GI50 [2]: > 100 µM (inactive)
- GI50 [3]: > 100 µM (inactive)
- GI50 [4]: > 100 µM (inactive)
- GI50 [5]: 74.8 µM (inactive)
- GI50 [6]: > 100 µM (inactive)
- GI50 [7]: > 100 µM (inactive)
- GI50 [8]: 63 µM (inactive)
- GI50 [9]: 67.5 µM (inactive)
- GI50 [10]: > 100 µM (inactive)
- GI50 [11]: > 100 µM (inactive)
- GI50 [12]: 29.5 µM (inactive)
- GI50 [13]: > 100 µM (inactive)
- GI50 [14]: > 100 µM (inactive)
- GI50 [15]: 89.9 µM (inactive)
- GI50 [16]: 26 µM (inactive)
- GI50 [17]: > 100 µM (inactive)
- GI50 [18]: > 100 µM (inactive)
- GI50 [19]: > 100 µM (inactive)
- GI50 [20]: 43.7 µM (inactive)

SMILES: CC1CCCCCC(=O)c2c(O)cc(O)cc2CC(=O)O1 (stereo not given) [CURVULARIN]
- GI50 [1]: 76.6 µM (inactive)
- GI50 [2]: > 100 µM (inactive)
- GI50 [3]: > 100 µM (inactive)
- GI50 [4]: > 100 µM (inactive)
- GI50 [5]: 98.2 µM (inactive)
- GI50 [6]: > 100 µM (inactive)
- GI50 [7]: > 100 µM (inactive)
- GI50 [8]: > 100 µM (inactive)
- GI50 [9]: 44.5 µM (inactive)
- GI50 [10]: > 100 µM (inactive)
- GI50 [11]: 54.1 µM (inactive)
- GI50 [12]: > 100 µM (inactive)
- GI50 [13]: > 100 µM (inactive)
- GI50 [14]: 90.2 µM (inactive)
- GI50 [15]: > 100 µM (inactive)
- GI50 [16]: 43.9 µM (inactive)
- GI50 [17]: > 100 µM (inactive)
- GI50 [18]: > 100 µM (inactive)
- GI50 [19]: 59.2 µM (inactive)
- GI50 [20]: 74.3 µM (inactive)

SMILES: Cc1cc2[nH]c(Cl)c(/C=C3\C(=O)Nc4ccccc43)c2cc1O
- GI50 [1]: 2.1 µM (inactive)
- GI50 [2]: 1.2 µM (inactive)
- GI50 [3]: 1.88 µM (inactive)
- GI50 [4]: 4.83 µM (inactive)
- GI50 [5]: 3.91 µM (inactive)
- GI50 [6]: 3.75 µM (inactive)
- GI50 [7]: 6.46 µM (inactive)
- GI50 [8]: 6.53 µM (inactive)
- GI50 [9]: 0.228 µM (active)
- GI50 [10]: 0.379 µM (active)
- GI50 [11]: 6.53 µM (inactive)
- GI50 [12]: 8.93 µM (inactive)
- GI50 [13]: 9.71 µM (inactive)
- GI50 [14]: 9.71 µM (inactive)
- GI50 [15]: 2.8 µM (inactive)
- GI50 [16]: 3.16 µM (inactive)
- GI50 [17]: 0.29 µM (active)
- GI50 [18]: 4.05 µM (inactive)
- GI50 [19]: 10.9 µM (inactive)
- GI50 [20]: 1.2 µM (inactive)

SMILES: N#Cc1ccc(C(=O)/C=C/c2ccc(O)c(O)c2)cc1
- GI50 [1]: 17.3 µM (inactive)
- GI50 [2]: 15.2 µM (inactive)
- GI50 [3]: 13 µM (inactive)
- GI50 [4]: 21.9 µM (inactive)
- GI50 [5]: 16.1 µM (inactive)
- GI50 [6]: > 40.4 µM (inactive)
- GI50 [7]: 17.7 µM (inactive)
- GI50 [8]: 17.3 µM (inactive)
- GI50 [9]: 1.57 µM (inactive)
- GI50 [10]: 14.9 µM (inactive)
- GI50 [11]: 12.6 µM (inactive)
- GI50 [12]: 15.5 µM (inactive)
- GI50 [13]: 15.5 µM (inactive)
- GI50 [14]: 14.1 µM (inactive)
- GI50 [15]: 10.5 µM (inactive)
- GI50 [16]: 11.5 µM (inactive)
- GI50 [17]: 14.4 µM (inactive)
- GI50 [18]: 17.7 µM (inactive)
- GI50 [19]: 16.3 µM (inactive)
- GI50 [20]: 1.4 µM (inactive)

SMILES: CN(C)CCCN1c2ccccc2C(C)(C)c2ccccc21 [DIMETACRINE]
- GI50 [1]: 16.5 µM (inactive)
- GI50 [2]: 13.4 µM (inactive)
- GI50 [3]: 14.8 µM (inactive)
- GI50 [4]: 13.9 µM (inactive)
- GI50 [5]: 13.6 µM (inactive)
- GI50 [6]: 16.1 µM (inactive)
- GI50 [7]: 14.1 µM (inactive)
- GI50 [8]: 15.3 µM (inactive)
- GI50 [9]: 13.1 µM (inactive)
- GI50 [10]: 14.2 µM (inactive)
- GI50 [11]: 14.9 µM (inactive)
- GI50 [12]: 14.6 µM (inactive)
- GI50 [13]: 15.4 µM (inactive)
- GI50 [14]: 14.2 µM (inactive)
- GI50 [15]: 14.8 µM (inactive)
- GI50 [16]: 15.1 µM (inactive)
- GI50 [17]: 13.2 µM (inactive)
- GI50 [18]: 11 µM (inactive)
- GI50 [19]: 17.2 µM (inactive)
- GI50 [20]: 22.4 µM (inactive)
